# Data published in US8580940B2, “Photoporphyrinogen oxidase having activity of imparting resistance against acifluorfen and gene thereof” (Nippon Soda Co., Ltd., priority 2005, dated 2013).
# What was measured:
# [1] = test system: transformed Arabidopsis slr lineage (slr1790-introduced); assay: Acifluorfen resistance test, degree of necrosis on leaves, slr1790-introduced transformants; format: in vivo; settings: acifluorfen 10 μM, 5 μl dropped onto leaves, 7 days after treatment, by eye on a 0 to 5 scale (5 complete death, 0 no effect)
# Description: (§1) For transformants in which gene introduction was confirmed, acifluorfen resistance effect was tested. Acifluorfen was prepared as emulsion to contain 4% of effective component by mixing and solubilizing dimethylformamide and polyoxyethylene sorbitan surfactant. This was diluted with water to make the final concentration of acifluorfen 10 μM, 5 μl of which was dropped using a micropippet onto leaves of Arabidopsis wild type and transformed Arabidopsis slr lineage, in which gene introduction was confirmed, both grown to 1 to 2 cm in height in a growth chamber.
# (§2) Study was continued until 7 days after the treatment with the chemicals and degree of necrosis was evaluated by eye (on a 0 to 5 scale, 0 means no effect).
# (§3) Evaluation was done by eye on a 0 to 5 scale, with 5 meaning complete death and 0 meaning no effect.
# [2] = test system: Amaranthus lividus; assay: Herbicidal activity, foliage treatment; format: in vivo; settings: foliage spray, two weeks after the treatment, index 0-10
# Description: Seeds of Amaranthus lividus were sowed on the surface of soil filled in a pot (200 cm^2) followed by covering with a little soil and then grown to 5 to 10 cm of plant length in a greenhouse. Each of water-diluted test chemical solutions was sprayed to foliage part of Amaranthus lividus with a small spray in an amount corresponding to the spray amount of 1000 litter/ha to achieve predetermined amount of agent. Cultivation was carried out in a greenhouse. Then herbicidal effect on Amaranthus lividus was examined two weeks after the treatment according to an examination criterion below.
# Values 1, 3, 5, 7, and 9 indicate the intermediate value of […], 4 and 6, 6 and 8, and 8 and 10 respectively.
# [3] = test system: ATΔslr1790 strain (AT strain in which slr1790 gene was disrupted); assay: Test for inhibitory potency of protoporphyrinogen oxidase inhibitor, growth (turbidity) of ATΔslr1790 strain; format: cell-based, Synechocystis PCC6803; settings: turbidity 6 days after start, 30° C., 1000 lux, BG11 liquid medium, pI50 = -log(concentration to inhibit 50% activity (M)); for IC50: Synechocystis, 144 h
# Description: (§4) The AT strain obtained in Example 1 and ATΔslr1790 strain, in which slr1790 gene was disrupted by the method described in Example 4, were used. Aforedescribed BG11 liquid medium was employed. With a view to preventing reverse mutation or loss of the gene, either chloramphenicol or kanamycin was added to the medium at a final concentration of 25 μM for the AT strain and ATΔslr1790 strain, respectively, because a chloramphenicol resistance gene is introduced with protoporphyrinogen oxidase into AT strain and a kanamycin resistance gene is introduced into ATΔslr1790 strain when disrupting the gene. AT strain and ATΔslr1790 strain were precultured with shaking in BG11 liquid medium, collected during the growth phase, and suspended in fresh BG11 liquid medium supplemented with an antibiotic so that A730 became 0.1, which was used for investigation.
# (§5) An active pharmaceutical ingredient of a test chemical was dissolved in DMSO and added to wells so that final concentration of agent became from 1.0×10^−4 M to 1.0×10^−9.5 M for each well (the final concentration of DMSO is 0.5%). The test includes shaking culture using a 96-well plate in a scale of 100 μl in each well at 30° C. of incubation temperature under 1000 lux of light intensity. Turbidity was measured 6 days after the start of the test and compared with solvent sample to calculate pI50 value. pI50 value=−log(concentration to inhibit 50% activity(M)) (Activity of Herbicidal Treatment)
# [4] = test system: Arabidopsis wild type; assay: Acifluorfen resistance test, degree of necrosis on leaves, wild type; format: in vivo; settings: acifluorfen 10 μM, 5 μl dropped onto leaves, 7 days after treatment, by eye on a 0 to 5 scale (5 complete death, 0 no effect)
# Description: as §1, §2, §3
# [5] = test system: AT strain (transgenic Synechocystis strain expressing Arabidopsis-derived protoporphyrinogen oxidase); assay: microbe, parasite or virus in culture; format: cell-based, Synechocystis PCC6803; settings: for IC50: Synechocystis, 144 h, read-out: pI50 Value AT strain
# Description: as §4, §5
Structure (SMILES),"degree of necrosis, slr 52 ([1]; transformant slr 52)","degree of necrosis, slr 146 ([1]; transformant slr 146)","Herbicidal activity (foliage treatment) (herbicide index for Amaranthus lividus, 16 g ai/ha) [2]",IC50 [3] [M],"degree of necrosis, Arabidopsis Wild Type [4]",IC50 [5] [µM],pI50 Value ATΔslr1790 strain [3],"pI50 Value AT strain ([5]; turbidity 6 days after start, 30° C., 1000 lux, BG11 liquid medium, pI50 = -log(concentration to inhibit 50% activity (M)))"
O=C(O)c1cc(Oc2ccc(C(F)(F)F)cc2Cl)ccc1[N+](=O)[O-] [acifluorfen],1,1,7,3.16e-05,4,> 100,,
c1cc[n+]2c(c1)-c1cccc[n+]1CC2 [diquat],,,,1e-05,,6.31,,
C#CCN1C(=O)COc2cc(F)c(N3C(=O)C4=C(CCCC4)C3=O)cc21 [flumioxazine],,,10 (100%),,,,6.7,4>
"CCOC(=O)COc1cc(-c2nn(C)c(OC(F)F)c2Cl)c(F)cc1Cl [pyraflufenethyl, pyraflufen-ethyl]",,,10 (100%),2.51e-07,,> 100,,
